The record followed here is a melting point compilation (Tetko et al.).

As for `CC1CCc2c(sc3nc(CCl)[nH]c(=O)c23)C1` (stereo unspecified), the melting point fell in the range of 180 to 182 °C.

Molecule `CC1Oc2ccc(N)cc2NC1=O` (stereo unspecified) yielded a melting point of 198 to 200 °C. In turn, `NC(=S)CN1C(=O)c2ccccc2S1(=O)=O` showed a melting point of 160 to 162 °C. The same measure for `CC(C)(C)OC(=O)Nc1ccccc1N`: 105 to 107 °C; for `CC(C)n1ccc(=O)nc1S`: 254 to 256 °C; for `Cc1ccc(-n2c(N)nc3cc(Br)ccc32)cc1`: 194 to 196 °C.

With `Sc1nc2cc(Cl)ccc2o1`, the melting point lay in the range of 277 to 279 °C. In turn, `N#Cc1ccc(Cl)c(N)c1` gave a melting point of 87 to 91 °C. As for `O=C(O)c1cc(Oc2ccccc2)ccn1`, the melting point is 179 to 181 °C.

Consider `CCOC(=O)c1n[nH]sc1=N`, for which the melting point was 126 to 128 °C. Next, `CCN(Cc1ccccc1)S(N)(=O)=O`: 79 to 81 °C; `Cc1ccc(-c2csc(N)n2)o1`: 102 to 104 °C. Next, `N#Cc1ccc(F)c(F)c1N`: 92 to 94 °C. The same measure for `CNC(=O)COc1cccc(O)c1`: 123 to 125 °C; for `CCN(c1ccccc1)S(=O)(=O)c1cc(C(=O)O)ccc1C`: 160 to 162 °C. Take `COc1cc([N+](=O)[O-])ccc1NC(=O)C(C)Cl` (stereo unspecified): the melting point was 85 to 87 °C. Molecule `CC1(CCc2ccc(O)cc2)NC(=O)NC1=O` (stereo unspecified) showed a melting point of 192 to 194 °C.

`O=C(CCl)Nc1nnc(-c2ccccc2)o1` displayed a melting point of 219 to 221 °C. For `O=[N+]([O-])c1ccc(S(=O)(=O)C(F)(F)F)cc1`, the melting point fell in the range of 81 to 83 °C. Molecule `CC(C)(C)OC(=O)N1CCOCC1C#N` (stereo unspecified) showed a melting point of 95 to 97 °C. Regarding `CC(=CC(=O)O)c1ccccc1OC(F)F`, the melting point was in the range of 69 to 71 °C. As for `COC(=O)C(C#N)=Cc1cccc(F)c1`, the melting point was in the range of 107 to 109 °C.

Take `CC1CCCN1C(=O)c1cc2ccccc2cc1N` (stereo unspecified): the melting point was in the range of 123 to 125 °C. `COc1ccc(S(=O)(=O)NC2CCOCC2)cc1N`: the melting point was 164 to 166 °C. With `CC(C)c1ccccc1Oc1ccccc1C(=O)O`, the melting point was 133 to 135 °C. For the molecule `CC(C)(C(=O)O)c1ccc([N+](=O)[O-])cc1`, the melting point was in the range of 129 to 131 °C. The molecule `CCn1c(S)nnc1-c1ccc(OC)cc1` gave a melting point of 178 to 180 °C. Take `CN(C)c1ncc(N)cn1`: the melting point lay within 78 to 80 °C. As for `CC(C)NC(=O)CNS(=O)(=O)CCC(=O)O`, the melting point fell in the range of 125 to 127 °C. The same measure for `COc1ccc(OC)c(CNCCO)c1`: 91 to 93 °C. `CS(=O)(=O)C1CCCCC1=O` (stereo unspecified) gave a melting point of 69 to 71 °C. For the molecule `CCCS(=O)(=O)N1CCCC(C(=O)O)C1` (stereo unspecified), the melting point was 122 to 124 °C.

As to `CCOc1nc(Cl)ncc1Br`, the melting point fell in the range of 72 to 74 °C. With `Nc1nnc(-c2ccc(Br)cc2)[nH]1`, the melting point was 214 to 216 °C.

With `O=C1NC(=O)C(F)(F)c2ccccc21`, the melting point lay in the range of 109 to 111 °C.

As for `O=C(O)c1cn(-c2ccccc2)nc1-c1ccc(-c2ccccc2)cc1`, the melting point fell in the range of 255 to 257 °C. Next, `CC1Cc2ccccc2N1C(=O)C1CCCCC1C(=O)O` (stereo unspecified): 123 to 125 °C; `CC(Cl)C(=O)N1N=C(c2ccc(Cl)cc2)CC1c1ccco1` (stereo unspecified): 141 to 143 °C. The same measure for `CCNc1nc(NCC)n2c(S)nnc2n1`: 98 to 100 °C.

As for `CC(=O)c1ccc(S(C)=O)cc1` (stereo unspecified), the melting point was in the range of 105 to 107 °C. With `O=C(O)C(=O)c1ccc(F)c(F)c1`, the melting point lay in the range of 88 to 90 °C. The molecule `NC(=O)c1coc(Br)c1` showed a melting point of 165 to 167 °C.

With `Clc1ccc(-c2nnc(Br)s2)cc1`, the melting point is 135 to 137 °C. For `O=S(=O)(c1ccc(F)cc1)N1CCCNCC1`, the melting point is 180 to 182 °C.

On to `COc1cccc(-n2ccnc2S)c1`, for which the melting point was in the range of 149 to 151 °C. The same measure for `CC(C)CNC(=O)N1CCCC(C(=O)O)C1` (stereo unspecified): 106 to 108 °C. As for `Cc1oncc1C(=O)Nc1ccc(CC(=O)O)cc1`, the melting point was in the range of 208 to 210 °C. With `Brc1ccccc1-c1nc2cccnc2[nH]1`, the melting point was in the range of 196 to 198 °C. `CCCCS(N)(=O)=O` yielded a melting point of 43 to 45 °C. Next, `CSc1ccc(C=NO)cc1`: 114 to 116 °C.

`O=c1[nH][nH]c2ncccc12` gave a melting point of 260 to 262 °C. On to `O=C(O)c1ccc2c(c1)COC2`, for which the melting point lay in the range of 164 to 166 °C. For `COc1ccc(CCC(=O)O)cc1Br`, the melting point was in the range of 95 to 97 °C.

Molecule `O=C(O)c1ccc([N+](=O)[O-])c2cccnc12` registered a melting point of 204 to 206 °C. For `CCOC(=O)c1c(C2CC2)csc1N`, the melting point was in the range of 70 to 72 °C. Regarding `CC(=O)c1cncs1`, the melting point fell in the range of 64 to 66 °C. As to `O=C(O)CNC(=O)c1ccc(Cl)c(Cl)c1`, the melting point lay in the range of 136 to 138 °C. The same measure for `NNC(=O)c1nnc(-c2ccccc2)o1`: 173 to 175 °C; for `O=C(O)Cc1ccc(NC(=O)c2cscn2)cc1`: 184 to 186 °C; for `N#Cc1ccc(CNc2ccc3[nH]c(=O)[nH]c3c2)cc1`: 276 to 278 °C. `Cc1ccnc2c1NC(=O)CN2`: the melting point was 216 to 218 °C. In turn, `O=C1COc2c1ccc(Cl)c2Cl` gave a melting point of 141 to 143 °C.

`Cc1csc(Sc2ccc(C(=O)O)cc2[N+](=O)[O-])n1` registered a melting point of 207 to 210 °C. The molecule `O=[N+]([O-])c1cn[nH]c1C1CC1` yielded a melting point of 95 to 97 °C.

In the case of `O=C(O)CS(=O)c1ccc([N+](=O)[O-])cc1` (stereo unspecified), the melting point lay in the range of 178 to 180 °C. Take `Nc1ccc2c(c1)OCC(=O)N2`: the melting point lay in the range of 217 to 219 °C. On to `Cn1c(=O)[nH]c(=O)c2[nH]c(CCC(=O)O)nc21`, for which the melting point lay in the range of 322 to 324 °C.

Take `O=C(O)c1nn(-c2ccc(Cl)cc2)cc1O`: the melting point lay within 248 to 250 °C.

Take `Cn1c(N)c(C(=O)CCl)c(=O)n(C)c1=O`: the melting point was 185 to 187 °C.

Consider `Cc1ccc(N)cc1S(=O)(=O)Nc1ccc(SC(F)F)cc1`, for which the melting point fell in the range of 227 to 230 °C. Next, `O=C(O)CNC(=O)OCC(F)(F)F`: 98 to 100 °C; `COCCNc1cc2nc[nH]c(=O)c2cc1[N+](=O)[O-]`: 259 to 261 °C.

For the molecule `O=C1CSCc2c(F)cccc21`, the melting point is 59 to 61 °C.

The molecule `O=C(O)c1cc(=O)[nH]c2ccc([N+](=O)[O-])cc12` had a melting point of 375 to 377 °C.

For the molecule `NNc1nc(C(F)(F)F)cs1`, the melting point is 122 to 124 °C. The same measure for `O=C1CS(=O)CCN1` (stereo unspecified): 119 to 121 °C; for `O=C(O)c1csc(-c2ccc(Br)s2)n1`: 248 to 250 °C. The same measure for `O=C(O)c1cc(C2CC2)nn1-c1ccccc1`: 138 to 140 °C; for `O=C1OCCN1c1cc([N+](=O)[O-])ccc1Cl`: 157 to 159 °C.

The molecule `CC(C)OC(=O)c1ccnc(O)c1` came in with a melting point of 145 to 147 °C.

In the case of `O=C(O)Cn1[nH]c(=O)ccc1=O`, the melting point lay within 235 to 237 °C.

As for `O=C(O)c1cc(Cl)n[nH]c1=O`, the melting point lay in the range of 212 to 214 °C. The same measure for `O=C(O)C(Cc1c[nH]c2ccccc12)NS(=O)(=O)c1ccc(Cl)c(C(F)(F)F)c1` (stereo unspecified): 185 to 187 °C.

In turn, `C=CCn1c(S)nnc1C1CCS(=O)(=O)C1` (stereo unspecified) displayed a melting point of 101 to 103 °C.

`CCCCOc1ccc2cc(C(=O)O)[nH]c2c1` had a melting point of 173 to 175 °C.

`Cc1ccc(Nc2nnc(S)s2)c(C)c1`: the melting point is 172 to 174 °C. As for `Nc1ccc(-n2ccnc2)nc1`, the melting point was in the range of 114 to 116 °C.

With `CCc1c(C(C)O)oc2ccccc12` (stereo unspecified), the melting point is 66 to 68 °C. Consider `NC(=O)NC(CC(=O)O)c1ccccc1` (stereo unspecified), for which the melting point lay within 194 to 196 °C. In the case of `CCOC(=O)c1c(NC(=O)CCl)sc(C(C)=O)c1C`, the melting point lay in the range of 176 to 178 °C. `O=C(O)Cc1cc(Cl)ccc1Cl`: the melting point lay in the range of 101 to 103 °C. With `N#CC1(CS(N)(=O)=O)CCCC1`, the melting point was 72 to 74 °C. In turn, `c1nc(N2CCNCC2)c2ccsc2n1` came in with a melting point of 71 to 73 °C. The molecule `CC1(C)NC(=O)N(CC#N)C1=O` registered a melting point of 155 to 157 °C.

On to `CCCc1cc(Cl)n2ncnc2n1`, for which the melting point was 67 to 69 °C. Take `O=C(O)C=Cc1cn(-c2ccccc2)nc1-c1ccc2c(c1)OCCO2`: the melting point was 250 to 252 °C. Next, `O=C1CNC(=O)N1CCCCl`: 90 to 92 °C; `COc1ccc(N)cc1OCc1cccnc1`: 95 to 97 °C; `Nc1cccc(NC(=O)CN2CCCCCC2)c1`: 67 to 69 °C. Consider `CC(C)(C)NS(=O)(=O)c1ccc(C(=O)O)cc1`, for which the melting point lay within 181 to 185 °C.

The molecule `COc1ccc(C(=O)O)cc1S(=O)(=O)N1CCCCCC1` had a melting point of 190 to 194 °C. Take `Cc1cccc(OCC(O)CN)c1` (stereo unspecified): the melting point fell in the range of 75 to 77 °C. `Nc1nc(C(=O)Nc2ccccc2)cs1` returned a melting point of 169 to 171 °C.

`CCCNC(=O)c1cccc(C(=O)O)c1` registered a melting point of 229 to 231 °C. Consider `COc1cc(C(=O)O)ccc1OCC(=O)N1CCOCC1`, for which the melting point is 162 to 164 °C. For `COC(=O)C(CCl)NC(C)=O` (stereo unspecified), the melting point was in the range of 74 to 76 °C.

`COc1cc2c(cc1OC)CC(=O)NCC2` came in with a melting point of 192 to 194 °C. Molecule `O=C(O)c1ccc(COc2ccc(Cl)cc2)cc1` had a melting point of 201 to 203 °C. For `O=C(O)c1ncncc1Cl`, the melting point is 153 to 155 °C.

`Nc1cc(Br)c(F)cc1Cl` displayed a melting point of 71 to 73 °C. The same measure for `O=C(O)c1ccc([N+](=O)[O-])c(Br)n1`: 179 to 181 °C; for `Clc1cc(-c2nnco2)ccn1`: 109 to 111 °C; for `O=C(O)Cc1ccccc1OC(F)F`: 76 to 78 °C.

In turn, `Oc1ccc(-c2cnc3ccccc3n2)cc1` displayed a melting point of 204 to 206 °C. The molecule `Nc1nc2cc3c(cc2s1)OCCCO3` displayed a melting point of 218 to 220 °C. For the molecule `CN(C)c1cc2ccccc2c(=O)[nH]1`, the melting point fell in the range of 185 to 187 °C. `COc1cc(C#N)ccc1Oc1ccc(N)cc1` showed a melting point of 123 to 125 °C. For `CC(NC(=O)c1ccc(Cl)cc1)C(=O)O` (stereo unspecified), the melting point was 158 to 160 °C.

The molecule `CCOc1cc2c(cc1/C=C/C(=O)O)OC(C)C2` (stereo unspecified) showed a melting point of 169 to 171 °C. `COc1ccc(N)cc1-n1cnnn1` had a melting point of 139 to 141 °C. `CCOC(=O)c1cnc(C(=O)O)c(Cl)c1` showed a melting point of 114 to 116 °C.
